± gives the expanded uncertainty stated by the source.
Experiment: mn = molality of the nth substance listed, in mol/kg
Conditions: 100 kPa, Liquid, Vibrating tube method

`CCCCCCCC[N+]1(C)CCOCC1.O=S(=O)([N-]S(=O)(=O)C(F)(F)F)C(F)(F)F` + CC#N gave a mass density (298.15 K, m1 = 0.00838) of 777.974 ± 0.39 kg/m3, a mass density (298.15 K, m1 = 0.01564) of 779.195 ± 0.39 kg/m3 and a mass density (298.15 K, m1 = 0.02472) of 780.71 ± 0.39 kg/m3. The mass density (298.15 K, m1 = 0.03714) was 782.766 ± 0.38 kg/m3, the mass density (298.15 K, m1 = 0.05106) was 785.044 ± 0.38 kg/m3 and the mass density (298.15 K, m1 = 0.06653) was 787.549 ± 0.38 kg/m3. For the same compound, the mass density (298.15 K, m1 = 0.08502) was 790.507 ± 0.37 kg/m3, the mass density (298.15 K, m1 = 0.1052) was 793.696 ± 0.37 kg/m3 and the mass density (298.15 K, m1 = 0.1294) was 797.448 ± 0.36 kg/m3. It also gave a mass density (298.15 K, m1 = 0.1609) of 802.25 ± 0.36 kg/m3, a mass density (303.15 K, m1 = 0.00838) of 772.547 ± 0.39 kg/m3 and a mass density (303.15 K, m1 = 0.01564) of 773.77 ± 0.39 kg/m3. For the same compound, the mass density (303.15 K, m1 = 0.02472) was 775.289 ± 0.39 kg/m3, the mass density (303.15 K, m1 = 0.03714) was 777.348 ± 0.39 kg/m3 and the mass density (303.15 K, m1 = 0.05106) was 779.63 ± 0.38 kg/m3. The mass density (303.15 K, m1 = 0.06653) was 782.14 ± 0.38 kg/m3, the mass density (303.15 K, m1 = 0.08502) was 785.101 ± 0.38 kg/m3 and the mass density (303.15 K, m1 = 0.1052) was 788.29 ± 0.37 kg/m3. For the same compound, the mass density (303.15 K, m1 = 0.1294) was 792.039 ± 0.36 kg/m3, the mass density (303.15 K, m1 = 0.1609) was 796.85 ± 0.36 kg/m3 and the mass density (308.15 K, m1 = 0.00838) was 767.094 ± 0.4 kg/m3. The mass density (308.15 K, m1 = 0.01564) was 768.318 ± 0.39 kg/m3, the mass density (308.15 K, m1 = 0.02472) was 769.839 ± 0.39 kg/m3 and the mass density (308.15 K, m1 = 0.03714) was 771.899 ± 0.39 kg/m3. The mass density (308.15 K, m1 = 0.05106) was 774.185 ± 0.38 kg/m3, the mass density (308.15 K, m1 = 0.06653) was 776.698 ± 0.38 kg/m3 and the mass density (308.15 K, m1 = 0.08502) was 779.664 ± 0.38 kg/m3. The mass density (308.15 K, m1 = 0.1052) was 782.856 ± 0.37 kg/m3, the mass density (308.15 K, m1 = 0.1294) was 786.61 ± 0.37 kg/m3 and the mass density (308.15 K, m1 = 0.1609) was 791.423 ± 0.36 kg/m3. It also gave a mass density (313.15 K, m1 = 0.00838) of 761.606 ± 0.4 kg/m3, a mass density (313.15 K, m1 = 0.01564) of 762.833 ± 0.39 kg/m3 and a mass density (313.15 K, m1 = 0.02472) of 764.357 ± 0.39 kg/m3. It also gave a mass density (313.15 K, m1 = 0.03714) of 766.421 ± 0.39 kg/m3, a mass density (313.15 K, m1 = 0.05106) of 768.71 ± 0.38 kg/m3 and a mass density (313.15 K, m1 = 0.06653) of 771.222 ± 0.38 kg/m3. The mass density (313.15 K, m1 = 0.08502) was 774.189 ± 0.38 kg/m3, the mass density (313.15 K, m1 = 0.1052) was 777.385 ± 0.37 kg/m3 and the mass density (313.15 K, m1 = 0.1294) was 781.149 ± 0.37 kg/m3. For the same compound, the mass density (313.15 K, m1 = 0.1609) was 785.97 ± 0.36 kg/m3, the mass density (318.15 K, m1 = 0.00838) was 756.08 ± 0.4 kg/m3 and the mass density (318.15 K, m1 = 0.01564) was 757.311 ± 0.4 kg/m3. It also gave a mass density (318.15 K, m1 = 0.02472) of 758.838 ± 0.39 kg/m3, a mass density (318.15 K, m1 = 0.03714) of 760.906 ± 0.39 kg/m3 and a mass density (318.15 K, m1 = 0.05106) of 763.198 ± 0.39 kg/m3. The mass density (318.15 K, m1 = 0.06653) was 765.716 ± 0.38 kg/m3, the mass density (318.15 K, m1 = 0.08502) was 768.695 ± 0.38 kg/m3 and the mass density (318.15 K, m1 = 0.1052) was 771.901 ± 0.37 kg/m3. The mass density (318.15 K, m1 = 0.1294) was 775.667 ± 0.37 kg/m3 and the mass density (318.15 K, m1 = 0.1609) was 780.493 ± 0.37 kg/m3.

From the NIST ThermoML archive (doi:10.1021/je400790d)
